Reference: patent publication US8193351B2, “HSP90 inhibitor” (Chugai Seiyaku Kabushiki Kaisha, priority 2006, dated 2012)

How the values were obtained:
Human HSP90 alpha = biological target: T1, Human HSP90 alpha (Homo sapiens, UniProt P07900); assay: Measurement of HSP90 enzyme inhibitory activity (ATPase, malachite green); format: biochemical; conditions: purified human HSP90 alpha, 1 mM ATP added, 37° C., two hours; read-out: Enzyme inhibitory activity (IC50, μM) Human HSP 90α
T1 construct: made in house; host or cells: E. coli BL21 codon plus (Stratagene)
Procedure: HSP90 enzyme inhibitory activity of the compounds of the present invention represented by formula (1) was measured by the following method. Among the 6-phenyl-N-phenyl-(1,3,5)triazin/(1,3)pyrimidin-2,4-diamine derivatives which are known LPAAT-β inhibitors, the following two compounds were used as comparative compounds, and their HSP90 enzyme inhibitory activities were measured similarly by the following method.
Introduction of pETHuHSP90a into E. coli (BL21 codon plus; Stratagene) was followed by O/N incubation in the presence of 0.1 mM IPTG, and the collected E. coli cells were disrupted by ultrasonication in a Lysis buffer (50 mM Tris-HCl (pH8.0), 10 mM MgCl2, 0.1% Triton X-100, Protease inhibitor cocktail tablets (Roche Diagnostics)). The cell lysate solution was centrifuged (10,000 rpm×30 minutes), and the supernatant obtained after centrifugation was used as a crude extract. The crude extract was fractionated using HisPrep FF column and HiTrap Q column (Amersham) to prepare a purified enzyme solution.
An enzyme solution for assays was prepared by dilution of the purified enzyme solution using an assay buffer (50 mM Tris HCl pH7.6, 20 mM KCl, 5 mM MgCl2).
10 μL each of various concentrations of the test substances (10% DMSO solution) was added to each well, and for the positive control wells, 10 μL of 10% DMSO was added. 10 μL of 10% DMSO was also added to the negative control well.
10 μL of 1 mM ATP was added to all of the wells, and the reaction was carried out at 37° C. for two hours.

HCT116 cells = assay: Measurement of cell growth inhibition (Cell Counting Kit-8, four days); format: cell-based; conditions: Homo sapiens, HCT-116, 96 h; HCT116 colon cancer cell line, four days culture; read-out: Cell growth inhibitory activity (IC50, μM) HCT116
Procedure: Cell growth inhibitory activities of the compounds of the present invention represented by formula (1) were measured by the following method.
Cells were maintained under conditions recommended by the provider of each cell line. Cells suspended in a medium were added to solutions containing various concentrations of the test substance, and the cells were cultured at 37° C. in a 5% CO2 incubator. Four days later, Cell Counting Kit-8 was added, and absorbance measurements were taken following the protocol included in the kit.

| Compound | IC50 (Human HSP90 alpha) | IC50 (HCT116 cells) |
| --- | --- | --- |
| NC(=O)OCCSc1cc(-c2c(Cl)cc3c4c(cccc24)COC3)nc(N)n1 [Example 325, carbamic acid 2-[2-amino-6-(5-chloro-1H,3H-benzo[de]isochromen-6-yl)-pyrimidin-4-ylsulfanyl]-ethyl ester] | 2.1 µM | 0.26 µM |
| CNC(=O)C(C)CSc1cc(-c2c(Cl)cc3c4c(cccc24)COC3)nc(N)n1 (stereo not drawn) [Example 322, 3-[2-amino-6-(5-chloro-1H,3H-benzo[de]isochromen-6-yl)-pyrimidin-4-ylsulfanyl]-2,N-dimethyl-propionamide] | 1.7 µM | 0.08 µM |
| COc1ccc(OC)c(Sc2cc(-c3ccc(OCCCO)cc3C)nc(N)n2)c1 [Example 44, 3-{4-[2-amino-6-(2,5-dimethoxyphenylsulfanyl)-pyrimidin-4-yl]-3-methylphenoxy}-propan-1-ol] | 2.2 µM | 14.5 µM |
| N#CCNC(=O)CSc1cc(-c2c(Cl)cc3c4c(cccc24)COC3)nc(N)n1 [Example 315, 2-[2-amino-6-(5-chloro-1H,3H-benzo[de]isochromen-6-yl)-pyrimidin-4-ylsulfanyl]-N-cyanomethyl-acetamide] | 1.9 µM | 2.1 µM |
| CSc1nc(N)nc(-c2cc(-c3ncccn3)c(Cl)cc2Cl)n1 [Example 24, 4-(2,4-dichloro-5-pyrimidin-2-yl-phenyl)-6-methylsulfanyl-[1,3,5]triazin-2-ylamine] | 2.1 µM | 1 µM |
| Nc1nc(SCCNC(=O)CO)cc(-c2c(Cl)cc3c4c(cccc24)COC3)n1 [Example 331, N-{2-[2-amino-6-(5-chloro-1H,3H-benzo[de]isochromen-6-yl)-pyrimidin-4-ylsulfanyl]-ethyl}-2-hydroxy-acetamide] | 1.5 µM | 1.9 µM |
| CSc1nc(N)nc(-c2ccccc2)n1 [4-methylsulfanyl-6-phenyl-[1,3,5]triazin-2-ylamine, reference compound] | 33.8 µM |  |
| COCCNC(=O)CCSc1cc(-c2c(Cl)cc3c4c(cccc24)COC3)nc(N)n1 [Example 319, 3-[2-amino-6-(5-chloro-1H,3H-benzo[de]isochromen-6-yl)-pyrimidin-4-ylsulfanyl]-N-(2-methoxy-ethyl)-propionamide] | 2.1 µM | 0.62 µM |
| N#CCOc1cc(-c2nc(N)nc(SCCC(=O)N3CCOCC3)n2)c(Cl)cc1Cl [Example 63, {5-[4-amino-6-(3-morpholin-4-yl-3-oxo-propylsulfanyl)-[1,3,5]triazin-2-yl]-2,4-dichlorophenoxy}-acetonitrile] | 2 µM | 0.74 µM |

Continued by falling IC50 (Human HSP90 alpha), values first:

| IC50 (Human HSP90 alpha) | IC50 (HCT116 cells) | Compound |
| --- | --- | --- |
| 1.5 µM | 0.018 µM | CNC(=O)C(C)CSc1nc(N)nc(-c2c(Cl)cc3c4c(cccc24)COC3)n1 (stereo not drawn) [Example 337, 3-[4-amino-6-(5-chloro-1H,3H-benzo[de]isochromen-6-yl)-[1,3,5]triazin-2-ylsulfanyl]-2,N-dimethyl-propionamide] |
| 1.4 µM | 0.22 µM | CNC(=O)CCSc1cc(-c2c(Cl)cc3c4c(cccc24)COC3)nc(N)n1 [Example 318, 3-[2-amino-6-(5-chloro-1H,3H-benzo[de]isochromen-6-yl)-pyrimidin-4-ylsulfanyl]-N-methyl-propionamide] |
| 1.4 µM | 4.1 µM | COc1ccc(OC)c(Sc2cc(-c3ccc(OCC#N)cc3C)nc(N)n2)c1 [Example 45, {4-[2-amino-6-(2,5-dimethoxyphenylsulfanyl)-pyrimidin-4-yl]-3-methylphenoxy}-acetonitrile] |
| 1.3 µM | 0.49 µM | Nc1nc(SCCNC(=O)CO)nc(-c2c(Cl)cc3c4c(cccc24)COC3)n1 [Example 342, N-{2-[4-amino-6-(5-chloro-1H,3H-benzo[de]isochromen-6-yl)-[1,3,5]triazin-2-ylsulfanyl]-ethyl}-2-hydroxy-acetamide] |
| 1.2 µM | 1.2 µM | Nc1nc(SCc2ccccc2)nc(-c2cc(C(=O)NC(CO)CO)c(Cl)cc2Cl)n1 [Example 28, 5-(4-amino-6-benzylsulfanyl-[1,3,5]triazin-2-yl)-2,4-dichloro-N-(2-hydroxy-1-hydroxymethylethyl)-benzamide] |
